In the assay the target is T1, COX-1 ovine enzyme (Ovis aries, UniProt P05979).
T1 construct: purchased Abcam ab204698
T1 sequence (P05979 25-600): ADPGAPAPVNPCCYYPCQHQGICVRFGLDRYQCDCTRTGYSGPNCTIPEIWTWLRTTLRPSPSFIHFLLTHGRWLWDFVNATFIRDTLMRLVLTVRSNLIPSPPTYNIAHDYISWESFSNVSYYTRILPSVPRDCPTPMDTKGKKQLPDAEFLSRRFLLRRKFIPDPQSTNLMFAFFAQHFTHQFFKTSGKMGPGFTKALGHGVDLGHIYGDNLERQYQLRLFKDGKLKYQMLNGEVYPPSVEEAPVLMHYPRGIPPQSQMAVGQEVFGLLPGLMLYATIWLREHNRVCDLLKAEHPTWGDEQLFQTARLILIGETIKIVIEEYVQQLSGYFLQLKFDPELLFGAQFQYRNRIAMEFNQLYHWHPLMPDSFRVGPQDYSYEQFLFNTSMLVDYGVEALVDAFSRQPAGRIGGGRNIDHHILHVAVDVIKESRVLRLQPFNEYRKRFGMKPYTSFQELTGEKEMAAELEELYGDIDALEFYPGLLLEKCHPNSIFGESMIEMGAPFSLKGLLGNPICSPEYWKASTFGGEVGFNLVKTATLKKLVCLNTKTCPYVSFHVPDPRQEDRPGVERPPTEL
The experiment in a line: Fluorometric COX-1 inhibitor screening kit. The class given is biochemical. The conditions noted are these: for inhibition at 100 µM: at 100 µM concentration; for IC50: fluorometric kit. As to the method: The COX-1 and COX-2 inhibitory activates of the synthesized compounds were tested using fluorometric COX-1 (Catalog Number: ab204698) and COX-2 (Catalog Number: ab283401) inhibitor screening kits (Abcam, United Kingdom). These assays are based on the fluorometric detection of Prostaglandin G2, generated by the COX enzyme. The experiment was conducted according to the manufacturer’s instructions. Each assay consists of a COX Assay Buffer, COX Probe (in DMSO), COX Cofactor (in DMSO), arachidonic acid and NaOH. The COX-1 inhibitor screening kit contains COX-1 ovine enzyme and COX-1 inhibitor SC560 (dissolved in DMSO), while the COX-2 inhibitor screening kit contains COX-2 human recombinant enzyme and COX-2 inhibitor Celecoxib (dissolved in DMSO). The tested compounds were dissolved in DMSO and further diluted five times with the COX Assay Buffer. The Inhibitor Control (IC) was prepared by adding 2 µL of COX-1/COX-2 inhibitor and 8 µL of COX Assay Buffer into assigned wells, while the Solvent Control (SC) was prepared by adding 2 µL of DMSO and 8 µL of COX Assay Buffer into assigned wells and the Sample (S) and Enzyme Control (EC) were prepared by adding 10 µL of diluted tested compounds or COX Assay Buffer into assigned wells. The Reaction Master Mix (COX Assay Buffer, COX Probe, Diluted COX Cofactor and COX-1/COX-2 Enzyme) was prepared according to instructions and 80 µL of the Reaction Master Mix was added into each well. Meanwhile, a diluted arachidonic acid/NaOH solution was prepared and 10 µL was added into each well using a multi-channel pipette to initiate all the reactions at the same time. The fluorescence values (Ex/Em = 535/587 nm) of the samples were kinetically measured at 25 °C for 5–10 min. The EC, SC, IC and tested compounds at all concentrations were analyzed in triplicates. Two points (T1 and T2) in the linear range of the plot were chosen and corresponding fluorescence values (RFU1 and RFU2) were obtained. The slope for all samples was calculated by dividing ΔRFU (RFU2-RFU1) by time Δt (T2−T1). The percentage of inhibition was calculated as follows: % Relative Inhibition=Slope of EC−Slope of S/Slope of EC∗100
Fluorescence measurements were performed on a BioTek Synergy LX multi-mode reader (Winooski, VT, USA).

Take `COc1ccc2c(c1)c(CNC(=O)NO)c(C)n2C(=O)c1ccc(Cl)cc1` [Compound 1, N’-hydroxy-N-[(1-(4-chlorobenzoyl)-5-methoxy-2-methyl-3-indolyl)methyl]urea]: the inhibition at 100 µM was below 50% and the IC50 was above 100 µM.

For `CC(NC(=O)NO)c1ccc(-c2ccccc2)c(F)c1` (centres unmarked) [Compound 2], the inhibition at 100 µM was below 50% and the IC50 was above 100 µM.

Consider `O=C(NO)NCc1ccccc1Nc1c(Cl)cccc1Cl` [Compound 3, N’-hydroxy-N-[(2-(2,6-dichloroanilino)phenyl)methyl]urea], for which the inhibition at 100 µM is below 50% and the IC50 is above 100 µM.

`COC(=O)CNC(=O)c1cc(C(C)(C)C)c(O)c(C(C)(C)C)c1` [Compound 5, (3,5-di-tert-butyl-4-hydroxy-benzoylamino)-acetic acid methyl ester]: the inhibition at 100 µM was below 50% and the IC50 was above 100 µM.

Take `C=CCNC(=O)c1cc(C(C)(C)C)c(O)c(C(C)(C)C)c1` [Compound 6, N-allyl-3,5-di-tert-butyl-4-hydroxy-benzamide]: the inhibition at 100 µM was below 50% and the IC50 is above 100 µM.

In the case of `CC(=O)N(O)C(C)c1ccc(CC(C)C)cc1` (centres unmarked) [Compound 11], the inhibition at 100 µM was below 50% and the IC50 is above 100 µM.

On to `COc1ccc2cc(C(C)N(O)C(C)=O)ccc2c1` (centres unmarked) [Compound 12, N-hydroxy-N-[1-(6-methoxy-naphthalen-2-yl)-ethyl]-acetamide], for which the inhibition at 100 µM is below 50% and the IC50 is above 100 µM.

The term inhibition denotes the share of the control response that was lost under treatment. What is called IC50 is the concentration that gives 50% inhibition.

The values above are taken from paper PMC10142505, “Synthesis, Evaluation of Enzyme Inhibition and Redox Properties of Potential Dual COX-2 and 5-LOX Inhibitors” (Pharmaceuticals, 2023).
